# From EP2818472A1, “Imidazo[4,5-c]pyridine and pyrrolo[3,2-c]pyridine compounds as G-protein-coupled receptor kinase 5 (GRK5) modulators” (Max-Planck-Gesellschaft zur Förderung der Wissenschaften …, priority 2013, dated 2014)
# Test system: beta-TC6 cells
# Test: Insulin HTRF assay (relative activity Ar) in beta-TC6 cells
# Assay type: cell-based, mouse
# Details: Mus musculus, Beta-TC6, 4 h, insulin HTRF, supernatant of beta-TC6 cells, incubation with test compound at 37°C for 2, 3, 4h; read-out: Ar (relative activity)
# Procedure, shortened: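 beta-TC6 cells (15k/well, seeded 24 or 48 h) washed, then exposed to compound in induction buffer (0.5% DMSO final) for 2, 3 or 4 h at 37°C.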
row,SMILES,Emax
1,"COc1ccc(Nc2cc3c(cn2)nc(-c2ccccc2)n3C)cc1 [Compound 705, N-(4-methoxyphenyl)-1-methyl-2-phenyl-imidazo[4,5-c]pyridin-6-amine]",30 to 50%
2,"Cn1c(-c2ccccc2)nc2cnc(Nc3ccc4c(c3)OCO4)cc21 [Compound 706, N-(1,3-benzodioxol-5-yl)-1-methyl-2-phenyl-imidazo[4,5-c]pyridin-6-amine]",50 to 100%
3,"COc1cc(Nc2cc3c(cn2)nc(-c2ccco2)n3C)cc(OC)c1OC [Compound 707, 2-(2-furyl)-1-methyl-N-(3,4,5-trimethoxyphenyl)imidazo[4,5-c]pyridin-6-amine]",> 100%
4,"CC(=O)Nc1ccc(Nc2cc3c(cn2)nc(-c2ccco2)n3C)cc1 [Compound 708, N-[4-[[2-(2-furyl)-1-methyl-imidazo[4,5-c]pyridin-6-yl]amino]phenyl]acetamide]",> 100%
5,"Cc1cccc(Nc2cc3c(cn2)nc(-c2ccco2)n3C)c1 [Compound 709, 2-(2-furyl)-1-methyl-N-(m-tolyl)imidazo[4,5-c]pyridin-6-amine]",50 to 100%
6,"Cn1c(-c2ccco2)nc2cnc(Nc3ccccc3Cl)cc21 [Compound 710, N-(2-chlorophenyl)-2-(2-furyl)-1-methyl-imidazo[4,5-c]pyridin-6-amine]",30 to 50%
7,"CN(C)C(=O)c1ccc(Nc2cc3c(cn2)nc(-c2ccco2)n3C)cc1 [Compound 711, 4-[[2-(2-furyl)-1-methyl-imidazo[4,5-c]pyridin-6-yl]amino]-N,N-dimethyl-benzamide]",50 to 100%
8,"CC(=O)Nc1cccc(Nc2cc3c(cn2)nc(-c2ccco2)n3C)c1 [Compound 712, N-[3-[[2-(2-furyl)-1-methyl-imidazo[4,5-c]pyridin-6-yl]amino]phenyl]acetamide]",50 to 100%
9,"CC(=O)Nc1ccc(Nc2cc3c(cn2)nc(-c2cccc(F)c2)n3C)cc1 [Compound 713, N-[4-[[2-(3-fluorophenyl)-1-methyl-imidazo[4,5-c]pyridin-6-yl]amino]phenyl]acetamide]",50 to 100%
10,"Cn1c(-c2cccc(F)c2)nc2cnc(Nc3ccc4c(c3)OCO4)cc21 [Compound 714, N-(1,3-benzodioxol-5-yl)-2-(3-fluorophenyl)-1-methyl-imidazo[4,5-c]pyridin-6-amine]",50 to 100%
11,"CN(C)C(=O)c1ccc(Nc2cc3c(cn2)nc(-c2cccc(F)c2)n3C)cc1 [Compound 715, 4-[[2-(3-fluorophenyl)-1-methyl-imidazo[4,5-c]pyridin-6-yl]amino]-N,N-dimethyl-benzamide]",30 to 50%
12,"COc1ccc(-c2nc3cnc(Nc4cc(OC)c(OC)c(OC)c4)cc3n2C)cc1OC [Compound 716, 2-(3,4-dimethoxyphenyl)-1-methyl-N-(3,4,5-trimethoxyphenyl)imidazo[4,5-c]pyridin-6-amine]",50 to 100%
13,"COc1ccc(-c2nc3cnc(Nc4ccc(NC(C)=O)cc4)cc3n2C)cc1OC [Compound 717, N-[4-[[2-(3,4-dimethoxyphenyl)-1-methyl-imidazo[4,5-c]pyridin-6-yl]amino]phenyl]acetamide]",50 to 100%
14,"COc1cccc(Nc2cc3c(cn2)nc(-c2ccc(OC)c(OC)c2)n3C)c1 [Compound 718, 2-(3,4-dimethoxyphenyl)-N-(3-methoxyphenyl)-1-methyl-imidazo[4,5-c]pyridin-6-amine]",50 to 100%
15,"COc1ccc(-c2nc3cnc(Nc4ccc(C(N)=O)cc4)cc3n2C)cc1OC [Compound 719, 4-[[2-(3,4-dimethoxyphenyl)-1-methyl-imidazo[4,5-c]pyridin-6-yl]amino]benzamide]",30 to 50%
16,"COc1ccc(Nc2cc3c(cn2)nc(-c2ccc(OC)c(OC)c2)n3C)c(C)c1 [Compound 720, 2-(3,4-dimethoxyphenyl)-N-(4-methoxy-2-methyl-phenyl)-1-methyl-imidazo[4,5-c]pyridin-6-amine]",30 to 50%
17,"COc1ccc(Nc2cc3c(cn2)nc(-c2ccc(OC)c(OC)c2)n3C)cc1 [Compound 721, 2-(3,4-dimethoxyphenyl)-N-(4-methoxyphenyl)-1-methyl-imidazo[4,5-c]pyridin-6-amine]",50 to 100%
